What was measured:
[1] = biological target: T1, acetylcholinesterase (AChE) (Electrophorus electricus, UniProt O42275); experiment: biochemical; conditions: triplicate
T1 construct: purchased Sigma Aldrich C3389-2KU
Procedure: AChE inhibitory activity was evaluated as described previously with few modifications using a microtiter plate reader (Molecular Device, CA, United States) ([Hasan et al., 2005]). Initially, 100 mM of sodium phosphate buffer (140 µl) pH 8, 0.25 mM DTNB (10 µl), 0.5 mM of synthetic compounds dissolved in 20 µl of ethanol and AChE (20 µl) were mixed and incubated for 15–20 min at room temperature in a microtiter plate. Finally, 10 µl of substrate ACh (0.4 mM) was added and incubated at room temperature for 4–6 min. The reaction started after the addition of ACh was hydrolyzed by AChE in the presence of DTNB; a yellow-colored 5-thio-2-nitrobenzoate anion was formed, which indicates the reaction completion and was read at a wavelength of 412 nm. All experiments were performed in triplicate and were analyzed using the SoftMax Pro6.3 program (Molecular Device, CA, United States).
Percentage inhibition was calculated by % inhibition = (O.D control-O.D test well) / O.D control)×100.
IC50 was determined at various concentrations, and EZ-Fit EK was employed to calculate the IC50 values of the test compounds (Perrella Scientific Inc., Amherst, MA, United States).
In the current study, electric eel AChE was used in the laboratory to perform an AChE inhibitory assay, but for computational analysis, we used hAChE (4EY6). Therefore, homology modeling was performed to check the similarity between the electric eel and hAChE.

[2] = biological target: T1, acetylcholinesterase (AChE); experiment: biochemical; parameters: V max / V maxapp: unit not given here; conditions: for K m app / V maxapp: in the presence of compound; for Ki: read-out: K i ± SEM; for K m: substrate ACh
Procedure: Enzyme-substrate (ES) is the complex of AChE and acetylcholine, while P represents the product formed after the reaction’s completion. Dissociation constant values were calculated through Dixon plots, their secondary replots, and the Lineweaver-Burk plot ([Khan et al., 2021]).
The values of K m, K i, and V max were determined from Dixon and Lineweaver-Burk plots using no linear regression equation.
GraFit software ([Khan et al., 2021]) was utilized for plotting graphs. The values of the correlation coefficients, slopes, intercepts, and their standard errors were determined by the linear regression equation using the same program.
During kinetic studies, the reaction rate was measured and the effect of different concentrations of a substrate on the enzyme was investigated. The kinetic study of enzymes helped to determine the catalytic mechanism of enzymes. […] The rate of reaction [V] was plotted against various substrate concentrations [S] at constant enzyme concentration. Initially, the rate of reaction [V] increases as substrate concentration increases, and at higher [S], the enzyme becomes saturated, and the rate of reaction reaches V max, which is referred to as the maximum rate of reaction.
The dissociation constant K i values were found using three different methods. Primarily, from the Lineweaver-Burk plot, which is the reciprocal rate of reaction (1/V) versus reciprocal of substrate concentration (1/S), helps to determine the effect of inhibitor on the values of K m and V max. Secondly, the Dixon plot is the plot between the reciprocal of initial velocities (1/V) versus different concentrations of the compound. Finally, from secondary replot, the slopes of each line versus various concentrations of all compounds. Kinetic studies were carried out to determine the inhibition type, which helps to specify the mechanism of action of enzyme inhibition and the inhibitor binding moieties.

[3] = test system: isolated rabbit jejunum, spontaneous contractions; experiment: Spasmolytic activity on spontaneously contracting isolated rabbit jejunum; conditions: mean ± SEM, n = 3
Procedure: (§1) The spasmolytic activity of the inhibitors was evaluated using isolated contracting rabbit jejunum ([Rahman et al., 2019]). Rabbits used in the current study were provided by Aga Khan Medical University, Karachi, Pakistan, weighing between 1.5 and 2.0 kg. The standard operating protocol has already been defined ([Choudhary et al., 2005]).
(§2) Calcium antagonistic activity was also performed and confirmed the relaxation of 80 mM K^+ produced contraction.

[4] = test system: isolated rabbit jejunum, K+-induced contractions; experiment: Calcium antagonistic activity: relaxation of high K+ (80 mM) contracted isolated rabbit jejunum; conditions: mean ± SEM, n = 3
Procedure: as §1, §2
Schiff bases were also evaluated at high K^+ (80 mM) contracted isolated rabbit jejunum preparations for their spasmolytic effect, which was relaxed by all compounds (Table 3). […] Schiff bases represent a class of compounds showing a wide range of bioactivities, such as antimicrobial and anticancer activities. Schiff base compounds are the products of primary amines and condensation of carbonyl compounds, which are extensively investigated owing to their wide range of biomedical applications ([Sztanke et al., 2013]). […] The antispasmodic and Ca^+2 antagonist activity of Schiff base compounds was first reported and could be linked to the azomethine bond.

[5] = Viability of human neutrophils (WST-1 cytotoxicity test); format: cell-based; conditions: human neutrophils 1 × 10^7 cells/ml
Procedure: A cytotoxicity test was performed to determine the adverse effect of tested compounds on humans using neutrophil cells.
The absorbance is the mean of five experimental replicates.
The % viability of neutrophils was measured by the following formula: Percentage viability: […].

T1 sequence (O42275 24-633): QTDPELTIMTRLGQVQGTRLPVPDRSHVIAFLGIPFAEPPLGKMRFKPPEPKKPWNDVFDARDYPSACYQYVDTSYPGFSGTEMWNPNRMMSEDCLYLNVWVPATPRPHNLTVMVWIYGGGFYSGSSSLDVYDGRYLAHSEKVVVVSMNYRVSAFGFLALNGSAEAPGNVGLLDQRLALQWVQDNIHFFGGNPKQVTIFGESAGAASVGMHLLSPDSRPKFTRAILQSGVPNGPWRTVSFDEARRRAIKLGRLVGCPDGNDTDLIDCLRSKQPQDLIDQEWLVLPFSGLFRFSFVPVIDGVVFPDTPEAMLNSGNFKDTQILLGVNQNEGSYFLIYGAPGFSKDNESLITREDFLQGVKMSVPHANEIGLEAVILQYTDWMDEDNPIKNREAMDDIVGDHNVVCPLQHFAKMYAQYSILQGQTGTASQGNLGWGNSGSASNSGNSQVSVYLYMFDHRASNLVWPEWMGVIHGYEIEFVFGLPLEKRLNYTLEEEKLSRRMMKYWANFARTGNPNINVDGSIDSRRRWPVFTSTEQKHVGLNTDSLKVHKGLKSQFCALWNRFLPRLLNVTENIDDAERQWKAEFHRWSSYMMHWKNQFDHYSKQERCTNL

CCSc1nc2ccccc2n1CC(=O)N/N=C/c1cccc(O)c1O [Compound 13]
IC50 [1]: 50.58 ± 0.3 µM
Type of inhibition [2]: Non-competitive
V max [2]: 5.0
K m app [2]: 120 µM
V maxapp [2]: 2.3
Ki [2]: 19 ± 1.7 µM
K m [2]: 120 µM
Effective Dose (ED50), spasmolytic effect, Spontaneous [3]: 458.926 ± 0.01 µM
Effective Dose (ED50), spasmolytic effect, High K+ [4]: 836.865 ± 0.05 µM
viability at 30 min, 539.913 µM ([5]; neutrophils isolated from human whole blood, Conc. 539.913 µM): 77.22 ± 0.5%

CCSc1nc2ccccc2n1CC(=O)N/N=C/c1ccc(Cl)cc1Cl [Compound 10]
IC50 [1]: 51.23 ± 0.2 µM
Type of inhibition [2]: Non-competitive
V max [2]: 5.0
K m app [2]: 120 µM
V maxapp [2]: 2.1
Ki [2]: 17 ± 1.3 µM
K m [2]: 120 µM
Effective Dose (ED50), spasmolytic effect, High K+ [4]: 1,620.347 ± 0.04 µM
viability at 30 min, 491.014 µM ([5]; neutrophils isolated from human whole blood, Conc. 491.014 µM): 90.1 ± 2.3%

COc1ccc2c3c1O[C@H]1C[C@@H](O)C=C[C@@]31CCN(C)C2 [Galanthamine, reference compound]
viability at 30 min, 696.005 µM ([5]; Conc. 696.005 µM): 96 ± 2%

CCSc1nc2ccccc2n1CC(=O)N/N=C/c1c2ccccc2cc2ccccc12 [Compound 14]
IC50 [1]: 51.23 ± 0.2 µM
Type of inhibition [2]: Non-competitive
K m app [2]: 120 µM
K m [2]: 120 µM
Effective Dose (ED50), spasmolytic effect, Spontaneous [3]: 592.876 ± 0.12 µM
Effective Dose (ED50), spasmolytic effect, High K+ [4]: 980.526 ± 0.05 µM
viability at 30 min, 456.058 µM ([5]; neutrophils isolated from human whole blood, Conc. 456.058 µM): 66.6 ± 4%

CCSc1nc2ccccc2n1CC(=O)N/N=C\c1ccc(OC)cc1OC [Compound 11]
IC50 [1]: 37.64 ± 0.2 µM
Type of inhibition [2]: Non-competitive
V max [2]: 5.0
K m app [2]: 120 µM
V maxapp [2]: 2.6
Ki [2]: 14 ± 1.6 µM
K m [2]: 120 µM
Effective Dose (ED50), spasmolytic effect, Spontaneous [3]: 326.239 ± 0.01 µM
Effective Dose (ED50), spasmolytic effect, High K+ [4]: 727.765 ± 0.09 µM
viability at 30 min, 501.907 µM ([5]; neutrophils isolated from human whole blood, Conc. 501.907 µM): 98 ± 1%

From publication PMC9428891 (Frontiers in Pharmacology, 2022)
